For two molecules, IC50 and Activity results are on record in ChEMBL document CHEMBL6083271 (J Med Chem, 2024).

The subject of data set [1] is RS4-11. Put plainly: Antiproliferative activity against human RS4;11 cells harbouring p53 wild type assessed as inhibition of cell growth measured after 4 days by WST-8 assay. Particulars: RS4-11, 96 h. The class given is functional, cell-based. For orientation: Tetrazolium assays rely on reduction of a dye to a coloured formazan, in cell work by metabolically active cells.

Data set [2] concerns RS4-11. Put plainly: Antiproliferative activity against human RS4;11 cells harbouring p53 mutant assessed as inhibition of cell growth measured after 4 days by WST-8 assay. It is filed as functional, cell-based. The settings on record: RS4-11, 96 h.
The subject of data set [3] is RS4-11. Put plainly: Antitumor activity against human RS4;11 cells xenografted in SCID mouse model assessed as tumor regression at 50 mg/kg, iv qd administered every other for 2 weeks and measured upto 30 days by caliper method relative to control. It is filed as functional. The settings on record: time <= 30 day. For orientation: In xenograft studies the graft and the host belong to different species.

The test system of data set [4] is RS4-11. Briefly: Antiproliferative activity against human RS4;11 cells assessed as inhibition of cell growth measured after 4 days by WST-8 assay. The class given is functional, cell-based. Particulars: RS4-11, 96 h.
The next data set has as its system MV4-11. Put plainly: Antiproliferative activity against human MV4-11 cells assessed as inhibition of cell growth measured after 4 days by WST-8 assay. It is filed as functional, cell-based. The settings on record: MV4-11, 96 h.
The test system of a further data set is OCI-AML2. Briefly: Antiproliferative activity against human OCI-AML2 cells assessed as inhibition of cell growth measured after 4 days by WST-8 assay. The class given is functional, cell-based. Particulars: OCI-AML2, 96 h.
The next data set relates to OCI-AML-3. Briefly: Antiproliferative activity against human OCI-AML-3 cells assessed as inhibition of cell growth measured after 4 days by WST-8 assay. It is filed as functional, cell-based. The settings on record: OCI-AML-3, 96 h.
A further data set deals with OCI-AML-5. Put plainly: Antiproliferative activity against human OCI-AML5 cells assessed as inhibition of cell growth measured after 4 days by WST-8 assay. The settings on record: OCI-AML-5, 96 h. It is filed as functional, cell-based.
Another data set deals with MOLM-13. Briefly: Antiproliferative activity against human MOLM-13 cells assessed as inhibition of cell growth measured after 4 days by WST-8 assay. The class given is functional, cell-based. Particulars: MOLM-13, 96 h.
In another data set the test system is MOLM-14. Briefly: Antiproliferative activity against human MOLM-14 cells assessed as inhibition of cell growth measured after 4 days by WST-8 assay. It is filed as functional, cell-based. The settings on record: MOLM-14, 96 h.
Another data set relates to ML-2. Put plainly: Antiproliferative activity against human ML-2 cells assessed as inhibition of cell growth measured after 4 days by WST-8 assay. The settings on record: ML-2, 96 h. The class given is functional, cell-based.
The test system of the next data set is SIG-M5. Put plainly: Antiproliferative activity against human SIG-M5 cells assessed as inhibition of cell growth measured after 4 days by WST-8 assay. The settings on record: SIG-M5, 96 h. It is filed as functional, cell-based.
Data set [5] in a line: Toxicity in SCID mouse at 50 mg/kg, iv. It is filed as organism-based. The settings on record: in vivo.

What is called IC50 is the point on the concentration scale where inhibition reaches its midpoint. With `O=C1CCC(N2Cc3c(C#CC4CCN(C(=O)c5ccc(NC(=O)[C@@H]6NC7(CCCCC7)[C@@]7(C(=O)Nc8cc(Cl)ccc87)[C@H]6c6cccc(Cl)c6F)cc5)CC4)cccc3C2=O)C(=O)N1` (stereo not given in full), the concentration for half-maximal inhibition (IC50) in the data set with RS4-11 [1] came to 4 nM; with RS4-11 [2], 50 nM; in the data set on RS4-11 [4] it was 3 nM; in the data set with MV4-11, 14 nM; in the data set on OCI-AML2, 113 nM; with OCI-AML-3 it was 7750 nM. The half-maximal inhibitory concentration (IC50) with OCI-AML-5 is 148 nM; in the data set with MOLM-13 it was 37 nM; with MOLM-14, 76 nM; with ML-2 it was 11 nM; in the data set with SIG-M5, 103 nM. Moreover, the Activity with RS4-11 [3] stood at 100%.
For the molecule `O=C1CCC(N2Cc3c(NCc4cn(CCCNC(=O)c5ccc(NC(=O)[C@@H]6NC7(CCCCC7)[C@@]7(C(=O)Nc8cc(Cl)ccc87)[C@H]6c6cccc(Cl)c6F)cc5)cn4)cccc3C2=O)C(=O)N1` (stereo not given in full), the IC50 amounted to 6 nM in the data set on RS4-11 [1] and 180 nM in the data set with RS4-11 [2]. Also, the Activity entry in [5] is listed as “Toxic”.
